From patent US20150203517A1, “Prodrugs of Compounds that Enhance Antifungal Activity and Compositions of Said Prodrugs” (priority 2014, published 2015)
Structures can show the parent of a compound that is named as a salt. Where two headings read alike, the source gives them in different places.

Assay: Saline solubility at 1.00 mg/mL and 0.50 mg/mL (with pH by indicator paper)
Type: physicochemical
Settings: for solubility at 1 h: saline or isotonic, thermodynamic from solid, centrifuged, soluble = no precipitate formed; for pH at 1.00 mg/mL of MGCD290 in saline: final concentration of hydroxamate 1 1.00 mg/mL, pH indicator paper
Method: Assays were performed to determine the saline solubility at 1.00 and 0.50 mg/ml and the stability of certain of the prodrug compounds of Examples 1-111. The following procedures were used.
Step 1. Sample preparation. An amount of the compound sample was precisely weighed to correspond to around 5 mg of the hydroxamate of compound 1, taking into account the mass of the leaving group and the salt factor if applicable. The sample was placed in a 16×125 mm glass screw cap tube. Saline was added so that the final concentration of hydroxamate 1 was 1.00 mg/mL. The pH was measured with pH indicator paper. The tube was shaken for 1 hour on a Vortex apparatus then centrifuged at 3000 rpm (1800 rcf) for 5 minutes. If the compound example was soluble (no precipitate formed) the procedure continued to step 2. If a precipitate formed then the sample was diluted with saline so that the final concentration of the hydroxamate of compound 1 was 0.50 mg/mL, and the shaking and centrifuging steps were repeated. If the compound example was soluble (no precipitate formed) the procedure continued to step 2. If a precipitate formed the sample was discarded. Step 2. HPLC analysis. A 500 μL aliquot of a sample solution prepared according to Step 1 was taken up into a 1.5 mL injection vial to which was added 500 μL of saline. The vial was shaken on a Vortex apparatus, injected into the HPLC instrument (UV detection, zero time point) and the retention time and purity of the sample compound were determined. The injection was repeated after 6 hours and 24 hours, and a comparison was made of the retention time, peak areas and level of degradation (if any) using the GDADI50 method.

[1] = 0.50 mg/mL as hydroxamate 1, shaken 1 hour, read-out: Soluble at 0.5 mg/mL of MGCD290 (Y/N)
[2] = 1.00 mg/mL as hydroxamate 1, shaken 1 hour, read-out: Soluble at 1.00 mg/mL of MGCD290 (Y/N)

| solubility at 1 h [1] [µg/mL] | solubility at 1 h [2] [µg/mL] | pH at 1.00 mg/mL of MGCD290 in saline | Compound |
| --- | --- | --- | --- |
| < 500 | < 1000 | – | NCCCCCCCC(=O)ONC(=O)Cc1ccc(CCCCc2ccccc2)cc1 [Compound 7, N-(8-aminooctanoyloxy)-2-(4-(4-phenylbutyl)phenyl)acetamide hydrochloride] |
| < 500 | < 1000 | 4.5-5 | CC(=O)OCC(=O)NC[C@H](NC(=O)COC(C)=O)C(=O)NCCC(=O)ONC(=O)Cc1ccc(CCCCc2ccccc2)cc1 [Compound 146] |
| < 500 | < 1000 | 4.5-5 | CCNC(=O)ONC(=O)Cc1ccc(CCCCc2ccccc2)cc1 [Compound 74] |
| < 500 | < 1000 | 4.5-5 | COCCOCCOCCNC(=O)NCCC(=O)NCC1(C(=O)ONC(=O)Cc2ccc(CCCCc3ccccc3)cc2)CC1 [Compound 79, N-1-(2-(2-(2-Methoxyethoxyl)ethoxy)ethyl)-N-3-(2-(1-((2-(4-(4-phenylbutyl)phenyl)acetamidooxy)carbonylcyclopropyl)methyl)carbamoylethyl)urea] |
| < 500 | < 1000 | 4.5-5 | COCCOCCOCC(=O)NCCC[C@H](NC(=O)COCCOCCOC)C(=O)NCCC(=O)ONC(=O)Cc1ccc(CCCCc2ccccc2)cc1 [Compound 159] |
| < 500 | < 1000 | 4.5-5 | CC(=O)OCC(=O)NCC[C@H](NC(=O)COC(C)=O)C(=O)NCCC(=O)ONC(=O)Cc1ccc(CCCCc2ccccc2)cc1 [Compound 151] |
| – | > 1000 | 5-5.5 | COCCOCCOCC(=O)N1CCN(C(=O)CCC(=O)ONC(=O)Cc2ccc(CCCCc3ccccc3)cc2)CC1 [Compound 124] |
| < 500 | < 1000 | 5.-5.5 | Cl.O=C(Cc1ccc(CCCCc2ccccc2)cc1)NOC(=O)CCCC1CCNCC1 [Compound 121, 2-(4-(4-phenylbutyl)phenyl)-N-(4-(piperidin-4-yl)butanoyloxy) acetamide hydrochloride] |
| < 500 | < 1000 | 4.5-5 | COCCOCCOCCOCC(=O)N1CCC(CC(=O)ONC(=O)Cc2ccc(CCCCc3ccccc3)cc2)CC1 [Compound 116] |
| – | > 1000 | 5.5-6 | COCCOCCOCC(=O)NCCN(CC(=O)NCCCC(=O)ONC(=O)Cc1ccc(CCCCc2ccccc2)cc1)C(=O)COCCOCCOC [Compound 134, 2-(2-(2-Methoxyethoxyl)ethoxy)-N-(2-oxo-2-(4-oxo-4-(2-(4-(4-phenylbutyl)phenyl)acetamidooxy)butylamino)ethyl)-N-(10-oxo-2,5,8-trioxa-11-azatridecan-13-yl)acetamide] |
| < 500 | < 1000 | – | CCCC(CCC)C(=O)ONC(=O)Cc1ccc(CCCCc2ccccc2)cc1 [Compound 50, 2-(4-(4-Phenylbutyl)phenyl)-N-(2-propylpentanoyloxyl)acetamide] |
| < 500 | < 1000 | 4.5-5 | COCCOCCOCCOCCOCCOCC(=O)NCC1(C(=O)ONC(=O)Cc2ccc(CCCCc3ccccc3)cc2)CC1 [Compound 57] |
| < 500 | < 1000 | 5.5-6 | COCCOCCOCC(=O)N1CCC(CCC(=O)ONC(=O)Cc2ccc(CCCCc3ccccc3)cc2)CC1 [Compound 112] |
| < 500 | < 1000 | 4-4.5 | Cl.O=C(Cc1ccc(CCCCc2ccccc2)cc1)NOC(=O)CC1CCNCC1 [Compound 114] |
| < 500 | < 1000 | 4.5-5 | CC(=O)NCCCC[C@H](NC(C)=O)C(=O)NCCC(=O)ONC(=O)Cc1ccc(CCCCc2ccccc2)cc1 [Compound 66] |
